Measured values: patent publication US11731934B2, “HDAC inhibitor compounds and methods of treatment” (University of Florida Research Foundation, Inc., priority 2014, dated 2023)

Tests used:
[1] = test system: HCT116 cells; experiment: Western blotting of acetylated histones; type: cell-based; settings: for Accumulation of acetylated histones: HCT116, 1 h, TSA 0.2 μM, others 2 μM (FIG. 1A); for Inhibition of cellular HDACs (H4K5ac, H3K18ac): HCT116, 0.5 μM, 24 h (FIG. 1B)
[2] = test system: HCT116 cells; experiment: H3K18ac after 6 h pulse treatment and drug washout; type: cell-based; settings: 6 h exposure then washout
[3] = test system: HCT116 and A549 cells; experiment: Western blotting of acetylated non-histone proteins; type: cell-based; settings: for α-tubulin acetylation: 1 h, TSA 0.2 μM, UF010 2 μM
[4] = test system: Ad-MLP-Luc reporter in HCT116 cell line; experiment: Ad-MLP-Luc luciferase reporter activation assay; type: cell-based; settings: HCT116, compared to Ad-E2-Luc reporter
[5] = test system: HepG2 cells; experiment: Viability assay, with or without HDAC shRNA; type: cell-based; settings: HepG2, 96 h (FIG. 4A)
[6] = biological target: HDAC1 (Homo sapiens (Human), UniProt Q13547); experiment: In vitro HDAC1 inhibition assay of HTS hits (HDAC/II-Glo reagents); type: biochemical
[7] = test system: NCI-60 panel of cancer cell lines; experiment: NCI-60 panel screen; type: cell-based
[8] = test system: MDA-MB-231 cells; experiment: Cell cycle analysis by FACS; type: cell-based; settings: 24 h, dose-dependent
[9] = test system: MDA-MB-231 cells; experiment: Microarray gene expression profiling with Ingenuity Pathway Analysis; type: cell-based; settings: 1 μM, 24 h
[10] = test system: MDA-MB-231 cells; experiment: Quantitative real-time PCR of CDKN1A (p21); type: cell-based
[11] = Cell-based assays, comparison with entinostat
Excerpt: Chem Biol. 2015: in press.].

[12] = test system: MDA-MB-231 cells; settings: UF010 at 1 μM
[13] = 50 mg/kg dosed orally, ref (4); cited from earlier work

Sequence of HDAC1 (Q13547 whole entry): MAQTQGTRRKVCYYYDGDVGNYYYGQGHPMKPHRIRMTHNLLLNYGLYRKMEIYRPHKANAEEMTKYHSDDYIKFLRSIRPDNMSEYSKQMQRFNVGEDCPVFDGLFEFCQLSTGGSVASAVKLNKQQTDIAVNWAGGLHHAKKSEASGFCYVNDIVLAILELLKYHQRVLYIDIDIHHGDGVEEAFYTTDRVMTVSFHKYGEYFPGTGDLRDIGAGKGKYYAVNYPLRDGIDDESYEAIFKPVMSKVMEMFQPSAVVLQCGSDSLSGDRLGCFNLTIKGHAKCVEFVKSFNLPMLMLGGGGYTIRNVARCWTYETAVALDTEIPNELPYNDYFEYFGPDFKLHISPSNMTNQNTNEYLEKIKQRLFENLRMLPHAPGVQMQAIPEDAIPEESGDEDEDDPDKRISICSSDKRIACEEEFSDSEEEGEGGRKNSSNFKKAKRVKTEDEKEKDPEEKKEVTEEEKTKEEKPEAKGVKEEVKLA

SMILES: Nc1ccccc1NC(=O)c1ccc(CNC(=O)OCc2cccnc2)cc1 [MS-275, entinostat]
- Accumulation of acetylated histones [1]: only slightly induced acetylation at several sites but failed to induce acetylation at most sites
- Persistence of induced histone acetylation (H3K18ac) after drug addition [2]: at least 48 h
- Time to induction of histone acetylation (H3K18ac) [2]: 18 h

SMILES: CCCCNNC(=O)c1ccc(N(C)C)cc1 [RLS2-131, N′-butyl-4-(dimethylamino)benzohydrazide]
- Inhibition of cellular HDACs (H4K5ac, H3K18ac) [1]: consistently displayed potent inhibition of cellular HDACs

SMILES: CC(/C=C/C(=O)NO)=C\[C@@H](C)C(=O)c1ccc(N(C)C)cc1 [TSA, Trichostatin A, reference compound]
- Accumulation of acetylated histones [1]: strongly induced acetylation at some sites but weakly at other sites
- α-tubulin acetylation [3]: dramatically increased α-tubulin acetylation

SMILES: C/C=C1\NC(=O)[C@H]2CSSCC/C=C/[C@H](CC(=O)N[C@H](C(C)C)C(=O)N2)OC(=O)[C@H](C(C)C)NC1=O [Romidepsin, romidepsin]
- Ad-MLP-Luc reporter activity [4]: dramatically increased in a dose-dependent manner
- Persistence of induced histone acetylation (H3K18ac) after drug addition [2]: up to 24 h
- Time to induction of histone acetylation (H3K18ac) [2]: quickly induced acetylation

SMILES: CCCCNNC(=O)c1ccccc1 [RLS2-125, N′-butylbenzohydrazide]
- Growth inhibition for HepG2 [5]: little to no growth inhibition

SMILES: O=C(CCCCCCC(=O)Nc1ccccc1)NO [SAHA, vorinostat, reference compound]
- HDAC1 inhibition in vitro, potency [6]: < 10 µM

SMILES: CCCCNNC(=O)c1ccc(Br)cc1 [UF010, 4-bromo-N′-butylbenzohydrazide]
- HDAC1 inhibition in vitro, potency [6]: < 10 µM
- Inhibition of cellular HDACs (H4K5ac, H3K18ac) [1]: consistently displayed potent inhibition of cellular HDACs
- Accumulation of acetylated histones [1]: consistently induced the accumulation of acetylated histones at all sites examined
- Accumulation of acetylated p53 ([3]; 2 μM, after exposure to etoposide 10 μM): induced accumulation of acetylated p53
- p53 stabilization ([3]; 2 μM, with or without etoposide treatment): notably stabilized p53
- α-tubulin acetylation [3]: little to no effect
- Mode of HDAC inhibition (on/off) [2]: fast-on but slow-off inhibitor
- Persistence of induced histone acetylation (H3K18ac) after drug addition [2]: up to 96 h
- Time to induction of histone acetylation (H3K18ac) [2]: ≤ 6 h
- Inhibition of proliferation, NCI-60 panel [7]: inhibited proliferation of all tested cell lines
- Cell cycle effect [8]: mainly blocked G1/S transition
- Predicated activation state, Biological Functions: Cell cycle, Cell cycle progression [9]: Suppressed
- Predicated activation state, Biological Functions: Cell death and survival, Apoptosis [9]: Activated
- Predicated activation state, Biological Functions: Cell death and survival, Cell survival [9]: Suppressed
- Predicated activation state, Biological Functions: Cell death and survival, Necrosis [9]: Activated
- Predicated activation state, Biological Functions: Cell growth and proliferation, Proliferation of cells [9]: Suppressed
- Predicated activation state, Biological Functions: DNA replication, recombination and repair, Repair of DNA [9]: Suppressed
- Predicated activation state, Biological Functions: Gene expression, Transcription of RNA [9]: Suppressed
- Predicated activation state, Upstream Regulators: Butyric acid [9]: Activated
- Predicated activation state, Upstream Regulators: Cisplatin [9]: Activated
- Predicated activation state, Upstream Regulators: ERK1/2 [9]: Activated
- Predicated activation state, Upstream Regulators: HDAC1 [9]: Suppressed
- Predicated activation state, Upstream Regulators: HDAC2 [9]: Suppressed
- Predicated activation state, Upstream Regulators: KRAS [9]: Suppressed
- Predicated activation state, Upstream Regulators: MYCN [9]: Suppressed
- Predicated activation state, Upstream Regulators: Myc [9]: Suppressed
- Predicated activation state, Upstream Regulators: Rb1 [9]: Activated
- Predicated activation state, Upstream Regulators: Romidepsin [9]: Activated
- Predicated activation state, Upstream Regulators: TP53 [9]: Activated
- Predicated activation state, Upstream Regulators: Tributyrin (butyrate) [9]: Activated
- Predicated activation state, Upstream Regulators: Trichostatin A [9]: Activated
- Predicated activation state, Upstream Regulators: fulvestrant [9]: Activated
- CDKN1A (p21) expression by qPCR [10]: activation of CDKNA encoding p21 was also confirmed
- Potency relative to entinostat in cell-based assays [11]: about 5 fold
- Cell migration to the denuded areas [12]: markedly slowed migration

SMILES: Nc1ccccc1NC(=O)CCCCCC(=O)Nc1ccccc1 [Compound 4b]
- Tmax [13]: 15 min
